Test results as given in US11214540B2, “Compositions for treating neurodegenerative diseases” (COGNITION THERAPEUTICS, INC., priority 2017, dated 2022).
pEC50, pIC50: −log10 of the molar value. Read-outs that look alike come from different tables or passages of the source.

How the values were obtained:
potassium channel hERG = potassium channel hERG (Homo sapiens (Human), UniProt Q12809); assay: In vitro testing for hERG inhibition; format: biochemical; details: in vitro toxicity potassium channel hERG
Experimental: In vitro testing for hERG inhibition was performed in a standard assay (See: Haverkamp W, Breithardt G, Carnm A J, Janse M J, Rosen M R, Antzelevitch C, Escande D, Franz M, Malik M, Moss A and Shah R. (2000) Eur Heat J 21 (15); 1216-31).

log P = format: physicochemical
Method in brief: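 Ratio of un-ionized compound concentrations between octanol and water, with aqueous pH set so the un-ionized form predominates. Value given as the log of the octanol/water ratio.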

[1] = tested on: Abeta oligomer-induced membrane trafficking deficits in primary hippocampal neurons; assay: Membrane Trafficking/Exocytosis (MTT) assay, Abeta oligomer effect on neurons; format: cell-based, rat; details: membrane trafficking, read-out: EC50 Abeta;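 note: compound potency for inhibiting the Abeta oligomer effect on exocytosis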
Experimental: Compounds according to any embodiment described herein, were tested for their ability to inhibit an amyloid beta effect on the cells. The compounds generally were able to inhibit the amyloid beta effect as measured by a membrane trafficking/exocytosis assay (MTT assay). The rationale for this assay was as follows:
The present exocytosis assay was adapted for use with mature primary neuronal cultures grown for 3 weeks in vitro. See WO 2011/106785, which is incorporated herein by reference in its entirety. Abeta oligomers cause a dose-dependent decrease in the amount of intracellular vesicles (puncta) filled with reduced purple formazan as measured via image processing using a Cellomics VTI automated microscopy system. […] Increasing the amount of Abeta oligomers eventually results in overt toxicity. Thus, the concentration of neuroactive Abeta oligomers used in the assay is much lower than that causing cell death. […] When configured in this manner, the assay is able to detect compounds that inhibit nonlethal effects of Abeta oligomer whether these compounds act via disruption of oligomers, inhibition of oligomer binding to neurons, or counteraction of signal transduction mechanisms of action initiated by oligomer binding.
Primary hippocampal neurons from E18 Sprague-Dawley rat embryos were plated at optimized concentrations in 384 well plates in NB media (Invitrogen). Neurons were maintained in cultures for 3 weeks, with twice weekly feeding of NB media with N2 supplement (Invitrogen).
A test compound was added to cells at concentrations ranging from 100 uM to 0.001 nM followed by addition of vehicle or Abeta oligomer preparations (3 μM total Abeta protein concentration), and incubated for 1 to 24 hr at 37° C. in 5% CO2. MTT reagent (3-(4,5-dimethylthizaol-2yl)-2,5diphenyl tetrazolium bromide) (Roche Molecular Biochemicals) was reconstituted in phosphate buffered saline to 5 mg/mL. 10 μL of MTT labeling reagent is added to each well and incubated at 37° C. for 1 h, then imaged. Exocytosis was assessed by automated microscopy and image processing to quantify the amount of endocytosed and exocytosed formazan.
Each assay plate was formatted so that compounds are tested with and without Abeta oligomer on each plate. This design eliminates toxic or metabolically active compounds early on in the screening cascade (at the level of the primary screen). Reduced formazan was first visible in intracellular vesicles. Eventual formazan exocytosis was accelerated via Abeta oligomers.
Human amyloid peptide 1-42 was obtained from a number of commercial vendors such as California Peptide, with lot-choice contingent upon quality control analysis. Quality controls of oligomer preparations consist of Westerns to determine oligomer size ranges and relative concentrations, and the MTT assay to confirm exocytosis acceleration without toxicity. Toxicity was monitored in each image-based assay via quantification of nuclear morphology visualized with the DNA binding blue dye DAPI (Invitrogen). Nuclei that are fragmented are considered to be in late stage apoptosis (Majno and Joris '95) and the test would be rejected. Peptide lots producing unusual peptide size ranges or significant toxicity at a standard 1.5 μM concentration on neurons would also be rejected.
Data handling and analysis were accomplished by Cellomics VTI image analysis software and STORE automated database software. Because of the low dynamic range and neuronal well-to-well variability after three weeks in culture, statistical comparisons are made via pairwise Tukey-Kramer analysis to determine the significance of the separation between compound+Abeta oligomers from Abeta alone, and between compound alone from vehicle. The ability of mature primary neurons to more closely approximate the electrophysiologically mediated signal transduction network of the adult brain justifies this screening strategy. […]

Chain of potassium channel hERG (Q12809 whole entry): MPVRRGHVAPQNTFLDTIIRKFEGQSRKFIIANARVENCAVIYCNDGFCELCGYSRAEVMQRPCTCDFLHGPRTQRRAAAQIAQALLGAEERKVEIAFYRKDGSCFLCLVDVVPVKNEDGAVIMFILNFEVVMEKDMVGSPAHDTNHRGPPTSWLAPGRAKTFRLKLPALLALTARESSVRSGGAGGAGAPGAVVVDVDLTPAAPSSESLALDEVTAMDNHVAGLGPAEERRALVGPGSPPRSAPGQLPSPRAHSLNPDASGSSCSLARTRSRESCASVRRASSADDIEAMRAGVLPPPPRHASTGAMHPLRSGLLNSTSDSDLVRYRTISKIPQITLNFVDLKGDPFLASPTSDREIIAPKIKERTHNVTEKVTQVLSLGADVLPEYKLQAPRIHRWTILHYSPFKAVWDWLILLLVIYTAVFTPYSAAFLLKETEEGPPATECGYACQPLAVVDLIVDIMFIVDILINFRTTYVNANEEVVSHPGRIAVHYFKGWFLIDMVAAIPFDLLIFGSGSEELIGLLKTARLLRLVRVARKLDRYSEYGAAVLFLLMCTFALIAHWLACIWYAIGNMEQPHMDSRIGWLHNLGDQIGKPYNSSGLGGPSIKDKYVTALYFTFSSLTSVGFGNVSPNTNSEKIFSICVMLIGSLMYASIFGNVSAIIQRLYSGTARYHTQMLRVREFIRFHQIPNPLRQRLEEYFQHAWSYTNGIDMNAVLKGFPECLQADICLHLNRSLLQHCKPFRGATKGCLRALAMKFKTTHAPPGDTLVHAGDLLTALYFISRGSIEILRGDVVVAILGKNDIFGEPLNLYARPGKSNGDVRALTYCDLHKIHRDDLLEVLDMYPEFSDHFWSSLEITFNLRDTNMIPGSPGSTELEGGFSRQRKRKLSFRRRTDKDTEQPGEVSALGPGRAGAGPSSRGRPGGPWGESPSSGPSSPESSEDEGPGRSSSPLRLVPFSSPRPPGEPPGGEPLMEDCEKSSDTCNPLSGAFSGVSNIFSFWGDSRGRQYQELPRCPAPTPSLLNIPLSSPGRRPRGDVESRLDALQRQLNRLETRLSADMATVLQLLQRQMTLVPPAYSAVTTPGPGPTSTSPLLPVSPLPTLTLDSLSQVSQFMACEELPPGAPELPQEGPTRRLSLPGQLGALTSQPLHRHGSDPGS

| Compound | pIC50 (potassium channel hERG) | log P (log P) | pEC50 [1] | logP (log P; octanol/water) | pEC50 ([1]; Rattus norvegicus, Hippocampal neuron) |
| --- | --- | --- | --- | --- | --- |
| CC(C)=CC(CC(C)(C)c1ccc(F)cc1)N1CCC(N2CCOCC2)CC1 (stereo not shown) [Compound 126] | 5.13 | 4.61 | 6.52 |  |  |
| CC(C)=CC(CC(C)(C)c1ccc(Cl)cc1)N1CCC(N2CCOCC2)CC1 (stereo not shown) [Compound 138] |  | 5.07 | 6.35 |  |  |
| COCCCC1CCN(C(C=C(C)C)CC(C)(C)c2ccc(F)cc2)CC1 (stereo not shown) [Compound 139] |  | 6.03 | 4.70 |  |  |
| COCCCC1CCN(C(C=C(C)C)CC(C)(C)c2ccc(N3CCOCC3)cc2)CC1 (stereo not shown) [Compound 140] |  | 5.78 | 4.70 |  |  |
| CC(C)=CC(CC(C)(C)c1ccc(C(F)(F)F)cc1)N1CCC(F)CC1 (stereo not shown) [Compound 141] |  | 5.74 | 5.80 |  |  |
| COC1CCN(C(C=C(C)C)CC(C)(C)c2ccc(Cl)cc2)CC1 (stereo not shown) [Compound 142] |  | 5.22 | 4.70 |  |  |
| CC(C)=CC(CC(C)(C)c1ccc(N2CCOCC2)cc1)N1CCC(C(F)(F)F)CC1 (stereo not shown) [Compound 143] |  | 5.96 | 4.70 |  |  |
| CC(C)=CC(CC(C)(C)c1ccc(N2CCOCC2)cc1)N1CCC(CCO)CC1 (stereo not shown) [Compound 144] |  | 4.69 | 4.70 |  |  |
| COC1CCN(C(C=C(C)C)CC(C)(C)c2ccc(F)cc2)CC1 (stereo not shown) [Compound 145] |  | 4.76 | 4.70 |  |  |
| CC(C)=CC(CC(C)(C)c1ccc(Cl)cc1)N1CCC(N2CCCCC2)CC1 (stereo not shown) [Compound 146] |  | 6.14 | 7.60 |  |  |
| CC(C)=CC(CC(C)(C)c1ccc(N2CCOCC2)cc1)N1CCC(C2CCOCC2)CC1 (stereo not shown) [Compound 149] |  | 5.59 | 4.70 |  |  |
| CC(C)=CC(CC(C)(C)c1ccc(N2CCOCC2)cc1)N1CCC(O)CC1 (stereo not shown) [Compound 150] |  | 3.86 | 4.70 |  |  |
| CC(C)=CC(CC(C)(C)c1ccc(F)cc1)N1CCN(C(=O)C2CC2)CC1 (stereo not shown) [Compound 151] |  | 4.65 | 4.70 |  |  |
| CC(C)=CC(CC(C)(C)c1ccc(Cl)cc1)N1CCN(C(=O)C2CC2)CC1 (stereo not shown) [Compound 152] |  | 5.11 | 6.59 |  |  |
| CC(C)=CC(CC(C)(C)c1ccc(F)cc1)N1CCN(C(=O)c2ccccc2)CC1 (stereo not shown) [Compound 153] |  | 5.73 | 6.30 |  |  |
| CC(C)=CC(CC(C)(C)c1ccc(Cl)cc1)N1CCN(S(C)(=O)=O)CC1 (stereo not shown) [Compound 156] |  | 3.83 | 6.47 |  |  |
| CC(C)=CC(CC(C)(C)c1ccc(Cl)cc1)N1CCC(OC(C)C)CC1 (stereo not shown) [Compound 158] |  | 5.99 | 5.54 |  |  |
| CC(C)=CC(CC(C)(C)c1ccc(F)cc1)N1CCC(CCOC(C)C)CC1 (stereo not shown) [Compound 159] |  | 6.36 | 5.00 |  |  |
| CC(C)=CC(CC(C)(C)c1ccc(Cl)cc1)N1CCC(CCOC(C)C)CC1 (stereo not shown) [Compound 160] |  | 6.82 | 4.82 |  |  |
| CC(C)=CC(CC(C)(C)c1ccc(C(F)(F)F)cc1)N1CCN(S(C)(=O)=O)CC1 (stereo not shown) [Compound 161] |  | 4.1 | 6.57 |  |  |
| COCCOCCC1CCN(C(C=C(C)C)CC(C)(C)c2ccc(Cl)cc2)CC1 (stereo not shown) [Compound 162] |  | 6 | 4.82 |  |  |

| Compound | pIC50 (potassium channel hERG) | log P (log P) | pEC50 [1] | logP (log P; octanol/water) | pEC50 ([1]; Rattus norvegicus, Hippocampal neuron) |
| --- | --- | --- | --- | --- | --- |
| COCCOCCC1CCN(C(C=C(C)C)CC(C)(C)c2ccc(F)cc2)CC1 (stereo not shown) [Compound 163] |  | 5.54 | 4.82 |  |  |
| CC(C)=CC(CC(C)(C)c1ccc(OC(C)C)cc1)N1CCC(C)(O)CC1 (stereo not shown) [Compound 180] | 4.70 | 4.87 |  |  |  |
| CC(C)=CC(CC(C)(C)c1ccc(Cl)cc1)N1CCC(CCOC2CCOC2)CC1 (stereo not shown) [Compound 181] | 5.74 | 5.95 |  |  |  |
| COCCCC1CCN(C(C=C(C)C)CC(C)(C)c2ccc(OC(C)(C)C)cc2)CC1 (stereo not shown) [Compound 183] | 5.68 | 6.79 |  |  |  |
| CC(C)=CC(CC(C)(C)c1ccc(F)cc1)N1CCC2(CC1)OCc1ccccc12 (stereo not shown) [Compound 185] | 5.52 | 6.16 |  |  |  |
| CC(C)=CC(CC(C)(C)c1ccc(Cl)cc1)N1CCC2(CC1)OCc1ccccc12 (stereo not shown) [Compound 187] | 6.00 | 6.62 |  |  |  |
| CC(C)=CC(COc1ccc(Cl)cc1)N1CCC(CCO)CC1 (stereo not shown) [Compound 188] | 6.40 | 4 |  |  |  |
| CC1(O)CCN(CCC(C)(C)c2ccc(Cl)cc2)CC1 [Compound 192] | 4.72 | 3.44 |  |  |  |
| CC(C)=CC(CC(C)(C)c1ccc(Cl)cc1)N1CCN(C(=O)OCC(C)C)CC1 (stereo not shown) [Compound 198] | 5.32 | 6.2 |  |  |  |
| COC1CCN(C(C)CC(C)(C)c2ccc(Cl)cc2)CC1 (stereo not shown) [Compound 199] | 5.92 | 4.22 |  |  |  |
| CC(C)=CC(CC(C)(C)c1ccc(C(F)(F)F)cc1)N1CCN(C(=O)OC(C)(C)C)CC1 (stereo not shown) [Compound 200] | 4.08 | 6.28 |  |  |  |
| COCCC1(O)CCN(C(C=C(C)C)CC(C)(C)c2ccc(F)cc2)CC1 (stereo not shown) [Compound 218] | 4.89 | 4.05 |  |  |  |
| CCCCC1(OC(=O)NC(C)C)CCN(C(C=C(C)C)CC(C)(C)c2ccc(F)cc2)CC1 (stereo not shown) [Compound 226] |  | 6.91 | 5.90 |  |  |
| CC(C)=C[C@@H](CC(C)(C)c1ccc(Cl)cc1)N1CCC[C@@H]1CO [Compound 239] | 5.34 | 5.04 |  |  |  |
| CC(C)=C[C@H](CC(C)(C)c1ccc(F)cc1)N1CCC[C@@H]1CO [Compound 242] | 4.85 | 4.57 |  |  |  |
| COC[C@H]1CCCN1C(C)CC(C)(C)c1ccc(Cl)cc1 (stereo partly shown) [Compound 253] |  | 4.67 | 6.60 |  |  |
| COC[C@H]1CCCN1[C@@H](C)CC(C)(C)c1ccc(C(F)(F)F)cc1 [Compound 254] | 5.30 | 4.95 |  |  |  |
| COc1cc(CCC(C)(C)N2Cc3cccc(C(=O)N4CCN(C(=O)Oc5ccccc5)CC4)c3C2)ccc1O [Compound 256] |  | 5.01 | 4.82 |  |  |
| CC(C)=C[C@H](CC(C)(C)c1ccc(C(F)(F)F)cc1)N1CCC(C2CCOCC2)CC1 [Compound 261] |  | 6.58 | 6.14 |  |  |
| COCCCC1CCN([C@@H](C=C(C)C)CC(C)(C)c2ccc(Cl)cc2)CC1 [Compound 292] |  | 6.49 | 5.80 |  |  |
| CC(C)=C[C@@H](CC(C)(C)c1ccc(C(F)(F)F)cc1)N1CCC(C2CCOCC2)CC1 [Example 262] |  |  |  | 6.58 | 5.73 |
